# Where a name gives a salt, the structure may show the parent alone. Read-outs that look alike come from different tables or passages of the source.
# Key:
# [1] = system: fibrin-induced microglia activation; test: Image-based assay of fibrin-induced microglia activation (HTS and dose response); format: cell-based, rat; conditions: for inhibition at 10 µM: Rattus norvegicus, Microglia, read-out: Fibrin % inhibition
# [2] = system: LPS-induced microglia activation; test: Image-based assay of LPS-induced microglia activation (HTS and dose response); format: cell-based, rat; conditions: for inhibition at 10 µM: Rattus norvegicus, Microglia, read-out: LPS % inhibition
# [3] = system: fibrin- and LPS-induced microglia activation; test: cells; format: cell-based, rat
# primary rat microglia [4] = test: Cell toxicity (dead cells, size <150 μm2) in LPS assay; conditions: for IC50: read-out: Cell Toxicity IC50 (uM) [LPS assay]
# primary rat microglia [5] = test: Cell toxicity (dead cells, size <150 μm2) in coated fibrin (cFib) assay; conditions: for IC50: read-out: Cell Toxicity IC50 (uM) [cFib assay];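 on Fibrin % cell toxicity: share of dead cells sized under 150 µm2 at 10 µM in fibrin-stimulated microglia HTS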
# [6] = primary microglia HTS, 10 μM, fibrin-stimulated, cell size >800 μm^2 as marker of activation
# [7] = primary microglia HTS, 10 μM, LPS-stimulated, cell size >800 μm^2 as marker of activation
# [8] = HTS of 1907 compounds, quadrant by fibrin and LPS inhibition
# [9] = primary microglia HTS, 10 μM, LPS assay, cell size <150 μm^2 as marker of toxicity
# [10] = primary microglia HTS, 10 μM, fibrin assay, cell size <150 μm^2 as marker of toxicity
# [11] = primary microglia HTS, fibrin stimulation, activation = cell size >800 μm2
# [12] = 48 h, primary microglia HTS, LPS stimulation, activation = cell size >800 μm2
# [13] = quadrant by fibrin and LPS inhibition in HTS of 1907 compounds
# [14] = primary microglia HTS, LPS stimulation, toxicity = cell size <150 μm2
# [15] = primary microglia HTS, fibrin stimulation, toxicity = cell size <150 μm2
# [16] = primary microglia HTS, fibrin stimulation, increased cell size (>800 μm^2) as marker of activation
# [17] = 48 h, primary microglia HTS, LPS stimulation, increased cell size (>800 μm^2) as marker of activation
# [18] = primary microglia HTS, LPS stimulation, decreased size (<150 μm^2) as marker of toxicity
# [19] = primary microglia HTS, fibrin stimulation, decreased size (<150 μm^2) as marker of toxicity
# [20] = primary HTS, 10 μM, fibrin-stimulated primary microglia
# [21] = primary HTS, 10 μM, LPS-stimulated primary microglia
# [22] = primary HTS, 10 μM, LPS assay, dead cells size <150 μm2
# [23] = primary HTS, 10 μM, fibrin assay, dead cells size <150 μm2
compound,measurement,setting,value
Cc1cn([C@H]2C=C[C@@H](CO)O2)c(=O)[nH]c1=O [Stavudine],inhibition at 10 µM,[1]; [6],-17%
same,inhibition at 10 µM,[2]; [7],19%
same,Quadrant (FIG. 5b),[3]; [8],Q4
same,LPS % cell toxicity,primary rat microglia [4]; [9],0%
same,Fibrin % cell toxicity,primary rat microglia [5]; [10],1%
CC[C@H](c1ccc(O)cc1)[C@@H](CC)c1ccc(O)cc1 [Hexestrol],inhibition at 10 µM,[1]; [11],-29%
same,inhibition at 10 µM,[2]; [12],7%
same,Quadrant (FIG. 5b),[3]; [13],Q4
same,LPS % cell toxicity,primary rat microglia [4]; [14],0%
same,Fibrin % cell toxicity,primary rat microglia [5]; [15],1%
CN1CCN(C2=Nc3ccccc3Oc3ccc(Cl)cc32)CC1 [Loxapine],inhibition at 10 µM,[1]; [16],-41%
same,inhibition at 10 µM,[2]; [17],9%
same,Quadrant (FIG. 5b),[3]; [13],Q4
same,LPS % cell toxicity,primary rat microglia [4]; [18],0%
same,Fibrin % cell toxicity,primary rat microglia [5]; [19],0%
O=C(O)c1cccnc1Nc1cccc(C(F)(F)F)c1 [Niflumic Acid],inhibition at 10 µM,[1]; [16],-14%
same,inhibition at 10 µM,[2]; [17],9%
same,Quadrant (FIG. 5b),[3]; [13],Q4
same,LPS % cell toxicity,primary rat microglia [4]; [18],0%
same,Fibrin % cell toxicity,primary rat microglia [5]; [19],1%
CO/N=C(\C(=O)N[C@@H]1C(=O)N2C(C(=O)O)=C(CSC(=O)c3ccco3)CS[C@H]12)c1csc(N)n1 [Ceftiofur Hydrochloride],inhibition at 10 µM,[1]; [20],4%
same,inhibition at 10 µM,[2]; [21],14%
same,Quadrant (FIG. 5b),"[3]; primary HTS, 10 μM",Q4
same,LPS % cell toxicity,primary rat microglia [4]; [22],0%
same,Fibrin % cell toxicity,primary rat microglia [5]; [23],1%
"COc1cc(OC)c(C(=O)CCCN2CCCC2)c(OC)c1 [Buflomedil, Buflomedil Hydrochloride]",Fibrin % inhibition,[1]; [20],−37%
same,LPS % inhibition,[2]; [21],13%
same,Quadrant (FIG. 5b),"[3]; primary HTS, 10 μM",Q4
same,LPS % cell toxicity,primary rat microglia [4]; [22],1%
same,Fibrin % cell toxicity,primary rat microglia [5]; [23],1%
S=C1SCN(Cc2ccccc2)CN1Cc1ccccc1 [Sulbentine],inhibition at 10 µM,[1]; [6],48%
same,inhibition at 10 µM,[2]; [7],13%
same,Quadrant (FIG. 5b),[3]; [8],Q4
same,LPS % cell toxicity,primary rat microglia [4]; [9],0%
same,Fibrin % cell toxicity,primary rat microglia [5]; [10],1%
Cc1ccc2c(Cl)cc(Cl)c(O)c2n1 [Chlorquinaldol],inhibition at 10 µM,[1]; [20],-14%
same,inhibition at 10 µM,[2]; [21],15%
same,Quadrant (FIG. 5b),"[3]; primary HTS, 10 μM",Q4
same,LPS % cell toxicity,primary rat microglia [4]; [22],0%
same,Fibrin % cell toxicity,primary rat microglia [5]; [23],1%
COc1ccc2cc(CCC(C)=O)ccc2c1 [Nabumetone],inhibition at 10 µM,[1]; [16],-13%
same,inhibition at 10 µM,[2]; [17],15%
same,Quadrant (FIG. 5b),[3]; [13],Q4
same,LPS % cell toxicity,primary rat microglia [4]; [18],0%
same,Fibrin % cell toxicity,primary rat microglia [5]; [19],1%
"CC(=O)[C@@]12O[C@](C)(c3ccccc3)O[C@@H]1C[C@H]1[C@@H]3CCC4=CC(=O)CC[C@]4(C)[C@H]3CC[C@@]12C [Algestone acetophenide, reference compound]",Fibrin Selectivity,[1],9
same,Fibrin Selectivity (LOG10),[1],0.95
same,IC50,"[1]; Table 1, dose response 0.001-20 μM, triplicates, primary rat microglia, 48 h, read-out: Fibrin IC50",1 µM
same,IC50,"[1]; Table 3, read-out: Fibrin IC50 (uM) (Suppl. Table 7)",1 µM
same,IC50,"[1]; dose response, fibrin-induced microglia activation, read-out: Fibrin IC50",1 µM
same,IC50,"[1]; fibrin-induced microglia activation, dose response, read-out: Fibrin IC50 (uM) (Suppl. Table 7)",1 µM
same,Fibrin % inhibition,[1]; [16],62%
same,IC50,"[2]; LPS-induced microglia activation, dose response, read-out: LPS IC50 (uM) (Suppl. Table 7)",9 µM
same,IC50,"[2]; Table 1, dose response 0.001-20 μM, triplicates, primary rat microglia, 48 h, read-out: LPS IC50",9 µM
same,IC50,"[2]; Table 3, read-out: LPS IC50 (uM) (Suppl. Table 7)",9 µM
same,IC50,"[2]; dose response, LPS-induced microglia activation, read-out: LPS IC50",9 µM
same,LPS % inhibition,"[2]; primary microglia HTS, LPS stimulation, increased cell size (>800 μm^2) as marker of activation",61%
same,Hit,[3]; HTS hit classification,HIT (Hits were defined as molecules that exhibited greater than 50% inhibition of either fibrin or LPS activation)
same,Quadrant (FIG. 5b),[3]; [8],Q2
same,Quadrant (FIG. 5b),"[3]; Table 1, screen at 10 μM",Q2
same,Cherry-picked Hit (Suppl. Table 7),[3]; Table 3,HIT (Hits were defined as molecules that exhibited greater than 50% inhibition of either fibrin or LPS activation)
same,Quadrant (FIG. 5b),"[3]; Table 3, screen at 10 μM",Q2
same,Cherry-picked Hit (Suppl. Table 7),[3]; hit classification in microglia HTS,HIT (Hits were defined as molecules that exhibited greater than 50% inhibition of either fibrin or LPS activation)
same,Quadrant (FIG. 5b),[3]; [13],Q2
same,LPS % cell toxicity,primary rat microglia [4]; [18],2%
same,IC50,primary rat microglia [4]; LPS assay,> 20 µM
same,IC50,primary rat microglia [4]; Table 3,> 20 µM
same,Fibrin % cell toxicity,primary rat microglia [5]; [19],1%
same,IC50,primary rat microglia [5]; Table 3,> 20 µM
same,IC50,primary rat microglia [5]; cFib assay,> 20 µM
NS(=O)(=O)c1cc2c(cc1Cl)NCNS2(=O)=O [Hydrochlorothiazide],inhibition at 10 µM,[1]; [11],-29%
same,inhibition at 10 µM,[2]; [12],21%
same,Quadrant (FIG. 5b),[3]; [13],Q4
same,LPS % cell toxicity,primary rat microglia [4]; [14],0%
same,Fibrin % cell toxicity,primary rat microglia [5]; [15],0%
CO/N=C(\C(=O)N[C@@H]1C(=O)N2C(C(=O)O)=C(C[N+]3(C)CCCC3)CS[C@H]12)c1csc(N)n1 [Cefepime Hydrochloride],inhibition at 10 µM,[1]; [20],7%
same,inhibition at 10 µM,[2]; [21],16%
same,Quadrant (FIG. 5b),"[3]; primary HTS, 10 μM",Q4
same,LPS % cell toxicity,primary rat microglia [4]; [22],0%
same,Fibrin % cell toxicity,primary rat microglia [5]; [23],1%
Nc1ccn([C@@H]2O[C@H](CO)[C@@H](O)C2(F)F)c(=O)n1 [Gemcitabine],inhibition at 10 µM,[1]; [11],-31%
same,inhibition at 10 µM,[2]; [12],0%
same,Quadrant (FIG. 5b),[3]; [13],Q4
same,LPS % cell toxicity,primary rat microglia [4]; [14],0%
same,Fibrin % cell toxicity,primary rat microglia [5]; [15],1%
COc1ccc(OC)c(C(O)C(C)N)c1 (stereo not shown) [Methoxamine],inhibition at 10 µM,[1]; [16],3%
same,inhibition at 10 µM,[2]; [17],1%
same,Quadrant (FIG. 5b),[3]; [13],Q4
same,LPS % cell toxicity,primary rat microglia [4]; [18],0%
same,Fibrin % cell toxicity,primary rat microglia [5]; [19],1%
CC#CCn1c(N2CCC[C@@H](N)C2)nc2c1c(=O)n(Cc1nc(C)c3ccccc3n1)c(=O)n2C [Linagliptin],inhibition at 10 µM,[1]; [11],2%
same,inhibition at 10 µM,[2]; [12],14%
same,Quadrant (FIG. 5b),[3]; [13],Q4
same,LPS % cell toxicity,primary rat microglia [4]; [14],1%
same,Fibrin % cell toxicity,primary rat microglia [5]; [15],1%
Nc1c(CC(=O)O)cccc1C(=O)c1ccc(Br)cc1 [Bromfenac],inhibition at 10 µM,[1]; [20],-12%
same,inhibition at 10 µM,[2]; [21],0%
same,Quadrant (FIG. 5b),"[3]; primary HTS, 10 μM",Q4
same,LPS % cell toxicity,primary rat microglia [4]; [22],0%
same,Fibrin % cell toxicity,primary rat microglia [5]; [23],1%
CC(N)Cc1ccc(O)cc1 (stereo not shown) [Hydroxyamphetamine],inhibition at 10 µM,[1]; [11],-12%
same,inhibition at 10 µM,[2]; [12],-2%
same,Quadrant (FIG. 5b),[3]; [13],Q4
same,LPS % cell toxicity,primary rat microglia [4]; [14],0%
same,Fibrin % cell toxicity,primary rat microglia [5]; [15],1%
O=C(O)Cc1cc(I)c(Oc2ccc(O)c(I)c2)c(I)c1 [Tiratricol],inhibition at 10 µM,[1]; [6],-51%
same,inhibition at 10 µM,[2]; [7],13%
same,Quadrant (FIG. 5b),[3]; [8],Q4
same,LPS % cell toxicity,primary rat microglia [4]; [9],0%
same,Fibrin % cell toxicity,primary rat microglia [5]; [10],1%
COc1ccc(/C=C/C(=O)Nc2ccccc2C(=O)O)cc1OC [Tranilast],inhibition at 10 µM,[1]; [6],35%
same,inhibition at 10 µM,[2]; [7],22%
same,Quadrant (FIG. 5b),[3]; [8],Q4
same,LPS % cell toxicity,primary rat microglia [4]; [9],0%
same,Fibrin % cell toxicity,primary rat microglia [5]; [10],0%

# From US20210330611A1, “THERAPY FOR NEUROLOGICAL DISEASES/DISORDERS” (priority 2020, published 2021)
